Results from US6525001B1, “Substituted pyrimidine and pyridine herbicides” (Mid-American Commercialization Corporation, priority 1997, dated 2003).

Legend:
Experiment in all cases: Test B pre-/postemergence
Format in all cases: in vivo
Design in all cases: key: 0 is no effect; 10 is complete control
[1] = test system: velvetleaf (Abutilon theophrasti)
How it was run: (§1)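 Seeds were planted and sprayed preemergence, while plants at 2 to 18 cm (1- to 4-leaf stage) were sprayed postemergence at the same time, with test chemical in a non-phytotoxic solvent mixture containing surfactant. After twelve to sixteen days in a greenhouse, injury was rated visually against untreated controls on a 0–10 scale.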

[2] = test system: sugar beet (Beta vulgaris)
How it was run: as §1

[3] = test system: pigweed (Amaranthus retroflexus)
How it was run: as §1

[4] = test system: soybean (Glycine max)
How it was run: as §1

[5] = test system: crabgrass (Digitaria sanguinalis); settings: for Plant response rating, Crabgrass: Preemergence
How it was run: as §1

[6] = test system: cocklebur (Xanthium strumarium)
How it was run: as §1

[7] = test system: giant foxtail (Setaria faberii)
How it was run: as §1

[8] = test system: bedstraw (Galium aparine)
How it was run: as §1

[9] = test system: purple nutsedge (Cyperus rotundus)
How it was run: as §1

[10] = test system: momingglory (Ipomoea hederacea)
How it was run: as §1

[11] = test system: wild oat (Avena fatua)
How it was run: as §1

[12] = test system: corn (Zea mays)
How it was run: as §1

[13] = test system: rape (Brassica napus)
How it was run: as §1

[14] = test system: wheat (Triticum aestivum)
How it was run: as §1

[15] = Preemergence, Rate 62 g/ha, scale of 0 to 10

Cc1cnc(-c2ccc(C(F)(F)F)cc2)nc1C(=O)c1cccc(OC(F)(F)F)c1 [Compound 75]
2: Plant response rating, Velvetleaf [1, 15] | Plant response rating, Cocklebur ([6]; Rate 250 g/ha, Preemergence) | Giant foxtail plant response rating ([7]; Rate 125 g/ha, Postemergence) | Corn plant response rating ([12]; Rate 62 g/ha, Postemergence) | Plant response rating, Corn ([12]; Rate 500 g/ha, Preemergence) | Plant response rating, Rape [13, 15] | Wheat plant response rating ([14]; Rate 62 g/ha, Postemergence) | Wheat plant response rating ([14]; Rate 125 g/ha, Postemergence)
5: Plant response rating, Giant foxtail ([7]; Rate 125 g/ha, Preemergence) | Plant response rating, Giant foxtail ([7]; Rate 250 g/ha, Preemergence) | Bedstraw plant response rating ([8]; Rate 62 g/ha, Postemergence) | Plant response rating, Wild oats [11, 15] | Rape plant response rating ([13]; Rate 62 g/ha, Postemergence) | Plant response rating, Wheat ([14]; Rate 500 g/ha, Preemergence)
4: Crabgrass plant response rating ([5]; Rate 125 g/ha, Postemergence) | Plant response rating, Giant foxtail ([7]; Rate 250 g/ha, Postemergence) | Plant response rating, Rape ([13]; Rate 250 g/ha, Preemergence) | Plant response rating, Rape ([13]; Rate 500 g/ha, Preemergence) | Plant response rating, Wheat ([14]; Rate 125 g/ha, Preemergence) | Plant response rating, Wheat ([14]; Rate 250 g/ha, Preemergence)
0: Plant response rating, Soybean [4, 15] | Plant response rating, Soybean ([4]; Rate 125 g/ha, Preemergence) | Plant response rating, Soybean ([4]; Rate 250 g/ha, Preemergence) | Plant response rating, Cocklebur [6, 15] | Plant response rating, Cocklebur ([6]; Rate 125 g/ha, Preemergence) | Plant response rating, Nutsedge [9, 15] | Nutsedge plant response rating ([9]; Rate 62 g/ha, Postemergence) | Nutsedge plant response rating ([9]; Rate 125 g/ha, Postemergence) | Plant response rating, Nutsedge ([9]; Rate 125 g/ha, Preemergence) | Plant response rating, Nutsedge ([9]; Rate 250 g/ha, Postemergence) | Plant response rating, Nutsedge ([9]; Rate 250 g/ha, Preemergence) | Plant response rating, Nutsedge ([9]; Rate 500 g/ha, Preemergence) | Plant response rating, Corn [12, 15] | Plant response rating, Corn ([12]; Rate 125 g/ha, Preemergence) | Plant response rating, Wheat [14, 15]
6: Plant response rating, Crabgrass ([5]; Rate 62 g/ha, scale of 0 to 10) | Plant response rating, Bedstraw ([8]; Rate 125 g/ha, Preemergence) | Plant response rating, Bedstraw ([8]; Rate 250 g/ha, Preemergence) | Plant response rating, Morningglory [10, 15]
8: Velvetleaf plant response rating ([1]; Rate 62 g/ha, Postemergence) | Plant response rating, Velvetleaf ([1]; Rate 125 g/ha, Preemergence) | Plant response rating, Bedstraw ([8]; Rate 500 g/ha, Preemergence)
3: Soybean plant response rating ([4]; Rate 62 g/ha, Postemergence) | Soybean plant response rating ([4]; Rate 125 g/ha, Postemergence) | Plant response rating, Soybean ([4]; Rate 250 g/ha, Postemergence) | Plant response rating, Bedstraw [8, 15] | Wild oats plant response rating ([11]; Rate 62 g/ha, Postemergence) | Wild oats plant response rating ([11]; Rate 125 g/ha, Postemergence) | Plant response rating, Wild oats ([11]; Rate 250 g/ha, Postemergence) | Corn plant response rating ([12]; Rate 125 g/ha, Postemergence) | Plant response rating, Corn ([12]; Rate 250 g/ha, Postemergence) | Plant response rating, Rape ([13]; Rate 125 g/ha, Preemergence) | Plant response rating, Wheat ([14]; Rate 250 g/ha, Postemergence)
10: Plant response rating, Velvetleaf ([1]; Rate 500 g/ha, Preemergence) | Sugarbeets plant response rating ([2]; Rate 62 g/ha, Postemergence) | Sugarbeets plant response rating ([2]; Rate 125 g/ha, Postemergence) | Plant response rating, Sugarbeets ([2]; Rate 125 g/ha, Preemergence) | Plant response rating, Sugarbeets ([2]; Rate 250 g/ha, Postemergence) | Plant response rating, Sugarbeets ([2]; Rate 250 g/ha, Preemergence) | Plant response rating, Sugarbeets ([2]; Rate 500 g/ha, Preemergence) | Plant response rating, Redroot pigweed ([3]; Rate 125 g/ha, Preemergence) | Plant response rating, Redroot pigweed ([3]; Rate 250 g/ha, Postemergence) | Plant response rating, Redroot pigweed ([3]; Rate 250 g/ha, Preemergence) | Plant response rating, Redroot pigweed ([3]; Rate 500 g/ha, Preemergence) | Plant response rating, Crabgrass ([5]; Rate 500 g/ha) | Morningglory plant response rating ([10]; Rate 62 g/ha, Postemergence) | Morningglory plant response rating ([10]; Rate 125 g/ha, Postemergence) | Plant response rating, Morningglory ([10]; Rate 125 g/ha, Preemergence) | Plant response rating, Morningglory ([10]; Rate 250 g/ha, Postemergence) | Plant response rating, Morningglory ([10]; Rate 250 g/ha, Preemergence) | Plant response rating, Morningglory ([10]; Rate 500 g/ha, Preemergence)
1: Plant response rating, Soybean ([4]; Rate 500 g/ha, Preemergence) | Plant response rating, Giant foxtail [7, 15] | Giant foxtail plant response rating ([7]; Rate 62 g/ha, Postemergence) | Plant response rating, Corn ([12]; Rate 250 g/ha, Preemergence)
7: Cocklebur plant response rating ([6]; Rate 62 g/ha, Postemergence) | Cocklebur plant response rating ([6]; Rate 125 g/ha, Postemergence) | Plant response rating, Cocklebur ([6]; Rate 250 g/ha, Postemergence) | Plant response rating, Wild oats ([11]; Rate 125 g/ha, Preemergence) | Plant response rating, Wild oats ([11]; Rate 250 g/ha, Preemergence) | Rape plant response rating ([13]; Rate 125 g/ha, Postemergence)
9: Velvetleaf plant response rating ([1]; Rate 125 g/ha, Postemergence) | Plant response rating, Velvetleaf ([1]; Rate 250 g/ha, Postemergence) | Plant response rating, Velvetleaf ([1]; Rate 250 g/ha, Preemergence) | Plant response rating, Sugarbeets [2, 15] | Plant response rating, Redroot pigweed [3, 15] | Redroot pigweed plant response rating ([3]; Rate 62 g/ha, Postemergence) | Redroot pigweed plant response rating ([3]; Rate 125 g/ha, Postemergence) | Plant response rating, Crabgrass ([5]; Rate 125 g/ha) | Plant response rating, Crabgrass ([5]; Rate 250 g/ha) | Plant response rating, Cocklebur ([6]; Rate 500 g/ha, Preemergence) | Plant response rating, Giant foxtail ([7]; Rate 500 g/ha, Preemergence) | Bedstraw plant response rating ([8]; Rate 125 g/ha, Postemergence) | Plant response rating, Bedstraw ([8]; Rate 250 g/ha, Postemergence) | Plant response rating, Wild oats ([11]; Rate 500 g/ha, Preemergence) | Plant response rating, Rape ([13]; Rate 250 g/ha, Postemergence)
